# Measured values from patent US12377068B2, “In vitro and xenograft anti-tumor activity of a halogenated-xanthene against refractory pediatric solid tumors” (Provectus Pharmatech, Inc., priority 2018, dated 2025).
# Legend:
# IMR5 = test: combination studies with PV-10, alamar Blue; format: cell-based; conditions: IMR5, in combination with 50 μM PV-10, 96 hours
# Protocol: (§1) Cells were cultured as described for cytotoxicity assays. A dilution series of three test drugs (doxorubicin, etoposide, vincristine) were prepared in DMEM containing either PBS (vehicle control) or PV10 (50 µM final) and added to cells in triplicate. Plates were cultured, washed and cell viability analyzed by alamar Blue®, as described for cytotoxicity assays. Combination indices (CI) for IC50 of test drug in combination with 50 µM PV-10 were calculated using CompuSyn software (ComboSyn Inc.). CI values were scored according to the following criteria CI<1 indicated synergistic activity, CI=1 indicated additive activity and CI>1 indicated […].
# SK-N-AS = test: combination studies with PV-10, alamar Blue; format: cell-based; conditions: in combination with 50 μM PV-10, 96 hours
# Protocol: as §1
# SK-N-BE(2) = test: combination studies with PV-10, alamar Blue; format: cell-based; conditions: in combination with 50 μM PV-10, 96 hours
# Protocol: as §1
# SK-N-MC = test: combination studies with PV-10, alamar Blue; format: cell-based; conditions: in combination with 50 μM PV-10, 96 hours
# Protocol: as §1
# [1] = test system: SK-N-AS, SK-N-BE (2), IMR5 and SK-N-MC cells; test: combination studies with PV-10, summary over cell lines; format: cell-based; conditions: in combination, 96 hours
# Protocol: as §1
# [2] = rat; cited from earlier work
combination index (CI) for IC50 of test drug (SK-N-AS),combination index (CI) for IC50 of test drug (SK-N-BE(2)),combination index (CI) for IC50 of test drug (SK-N-MC),SMILES,combination index (CI) for IC50 of test drug (IMR5),"CI values, range over the cell lines [1]",in vivo biological lifetime [2]
0.77,0.72,0.42,"COc1cccc2c1C(=O)c1c(O)c3c(c(O)c1C2=O)C[C@@](O)(C(=O)CO)C[C@@H]3O[C@H]1C[C@H](N)[C@H](O)[C@H](C)O1 [Doxorubicin, doxorubicin]",0.38,0.42-0.77,
0.17,0.66,0.58,"COc1cc([C@@H]2c3cc4c(cc3[C@@H](O[C@@H]3O[C@@H]5CO[C@@H](C)O[C@H]5[C@H](O)[C@H]3O)[C@H]3COC(=O)[C@H]23)OCO4)cc(OC)c1O [Etoposide, etoposide]",0.65,0.17-0.66,
,,,"O=C([O-])c1c(Cl)c(Cl)c(Cl)c(Cl)c1-c1c2cc(I)c(=O)c(I)c-2oc2c(I)c([O-])c(I)cc12.[Na+].[Na+] [Rose Bengal, 4,5,6,7-tetrachloro-2′,4′,5′,7′-tetraiodofluorescein disodium]",,,a few minutes
0.35,0.1,0.43,"CC[C@]1(O)C[C@H]2CN(CCc3c([nH]c4ccccc34)[C@@](C(=O)OC)(c3cc4c(cc3OC)N(C=O)[C@H]3[C@@](O)(C(=O)OC)[C@H](OC(C)=O)[C@]5(CC)C=CCN6CC[C@]43[C@@H]65)C2)C1 [Vincristine, vincristine]",0.2,0.1-0.43,
